According to patent publication US8048825B2, “Haloalkylsulfonanilide derivatives or salt thereof, herbicide comprising the derivatives as active ingredient, and use of the herbicide” (Nihon Nohyaku Co., Ltd., priority 2006, dated 2011):

Legend:
Type in all cases: in vivo
[1] = tested on: Scirpus juncoides; experiment: Herbicidal efficacy on paddy field weeds of pre-emergence stage (Pre), Test Example 1; details: 1000 g/ha as active ingredient, examined after 21 days
Protocol: (§1) 75 cm^2 plastic pots were filled with the soil (clay loam). Seeds of Scirpus juncoides, a paddy weed, were planted, and they were covered with 75 cm^3 of soil mixed with seeds of Lindernia procumbens and then filled with water depth of 5 cm. Next day, predetermined effective dosage (1000 g/ha as an active ingredient) of formulations comprising a compound of the present invention as an active ingredient which were prepared following Formulation Examples 1 to 4 was diluted with water and applied dropwise to the surface of the water. Then, they were brought up in a greenhouse and the herbicidal effect was examined after 21 days from the treatment by comparing with the result of an untreated group according to the following criteria. In the table, “-” means that the test was not performed.
(§2) Criteria for herbicidal efficacy (growth inhibiting degree) and phytotoxicity. • 5 . . . 100% herbicidal effect, phytotoxicity. • 4 . . . 90%-99% herbicidal effect, phytotoxicity. • 3 . . . 70%-89% herbicidal effect, phytotoxicity. • 2 . . . 40%-69% herbicidal effect, phytotoxicity. • 1 . . . 1%-39% herbicidal effect, phytotoxicity. • 0 . . . 0% herbicidal effect, phytotoxicity.

[2] = tested on: Lindernia procumbens; experiment: as above; details: 1000 g/ha as active ingredient, examined after 21 days
Protocol: as §1, §2

[3] = tested on: Scirpus juncoides; experiment: Herbicidal effect on paddy field weeds of post-emergence stage (Post), Test Example 2; details: one-leaf stage, 1000 g/ha as active ingredient, examined after 21 days
Source text: as §2
(§3) 75 cm^2 plastic pots were filled with the soil (clay loam). Seeds of Scirpus juncoides and Echinochloa crus-galli, paddy weeds, were planted, and they were covered with 75 cm^3 of soil mixed with seeds of Lindernia procumbens and then filled with water depth of 5 cm and they were brought up in a greenhouse. When the test plants were at one-leaf stage, predetermined effective dosage (1000 g/ha as an active ingredient) of formulations comprising a compound of the present invention as an active ingredient was applied to the pot water. Then, they were brought up in a greenhouse and the herbicidal efficacy was examined after 21 days from the treatment by comparing with the result of an untreated group according to the criteria of Test Example 1. In the table, “-” means that the test was not performed.

[4] = tested on: Echinochloa crus-galli; experiment: as above; details: one-leaf stage, 1000 g/ha as active ingredient, examined after 21 days
Source text: as §2, §3

[5] = tested on: Lindernia procumbens; experiment: as above; details: one-leaf stage, 1000 g/ha as active ingredient, examined after 21 days
Source text: as §2, §3

SMILES: O=S(=O)(Nc1ccccc1CN1CCCCOC1=S)C(F)(F)F [2-12]
- Scirpus juncoides pre (herbicidal effect) [1]: 4 (90%-99% herbicidal effect, phytotoxicity)
- Lindernia procumbens pre (herbicidal effect) [2]: 4 (90%-99% herbicidal effect, phytotoxicity)
- Scirpus juncoides post (herbicidal effect) [3]: 4 (90%-99% herbicidal effect, phytotoxicity)
- Echinochloa crus-galli post (herbicidal effect) [4]: 4 (90%-99% herbicidal effect, phytotoxicity)

SMILES: CC(C)COC(=O)N(c1ccccc1CN1CCCCOC1=S)S(=O)(=O)C(F)(F)F [2-17]
- Scirpus juncoides pre (herbicidal effect) [1]: 4 (90%-99% herbicidal effect, phytotoxicity)
- Scirpus juncoides post (herbicidal effect) [3]: 4 (90%-99% herbicidal effect, phytotoxicity)
- Echinochloa crus-galli post (herbicidal effect) [4]: 4 (90%-99% herbicidal effect, phytotoxicity)

SMILES: CC1(C(F)(F)F)CCN(Cc2ccccc2NS(=O)(=O)C(F)(F)F)C(=O)O1 (stereo not drawn) [Compound 1-80]
- Scirpus juncoides pre (herbicidal effect) [1]: 4 (90%-99% herbicidal effect, phytotoxicity)
- Lindernia procumbens pre (herbicidal effect) [2]: 4 (90%-99% herbicidal effect, phytotoxicity)
- Scirpus juncoides post (herbicidal effect) [3]: 4 (90%-99% herbicidal effect, phytotoxicity)
- Echinochloa crus-galli post (herbicidal effect) [4]: 4 (90%-99% herbicidal effect, phytotoxicity)

SMILES: CC(C)COC(=O)N(c1ccccc1CN1CCC(C)(C(F)(F)F)OC1=O)S(=O)(=O)C(F)(F)F (stereo not drawn) [Compound 1-85]
- Scirpus juncoides pre (herbicidal effect) [1]: 4 (90%-99% herbicidal effect, phytotoxicity)
- Lindernia procumbens pre (herbicidal effect) [2]: 4 (90%-99% herbicidal effect, phytotoxicity)
- Scirpus juncoides post (herbicidal effect) [3]: 4 (90%-99% herbicidal effect, phytotoxicity)
- Echinochloa crus-galli post (herbicidal effect) [4]: 4 (90%-99% herbicidal effect, phytotoxicity)

SMILES: CC(C)COC(=O)N(c1ccccc1CN1CCC(c2ccccc2)(C2CC2)OC1=O)S(=O)(=O)C(F)(F)F (stereo not drawn) [Compound 1-188]
- Scirpus juncoides pre (herbicidal effect) [1]: 4 (90%-99% herbicidal effect, phytotoxicity)
- Lindernia procumbens pre (herbicidal effect) [2]: 4 (90%-99% herbicidal effect, phytotoxicity)
- Scirpus juncoides post (herbicidal effect) [3]: 4 (90%-99% herbicidal effect, phytotoxicity)
- Echinochloa crus-galli post (herbicidal effect) [4]: 4 (90%-99% herbicidal effect, phytotoxicity)

SMILES: COCN(c1ccccc1CN1CCC(c2ccccc2)(C2CC2)OC1=O)S(=O)(=O)C(F)(F)F (stereo not drawn) [Compound 1-191]
- Lindernia procumbens pre (herbicidal effect) [2]: 4 (90%-99% herbicidal effect, phytotoxicity)
- Echinochloa crus-galli post (herbicidal effect) [4]: 4 (90%-99% herbicidal effect, phytotoxicity)

SMILES: CN(c1ccccc1CN1CC(C)(C)C(c2ccccc2)OC1=O)S(=O)(=O)C(F)(F)F (stereo not drawn) [Compound 1-268]
- Scirpus juncoides pre (herbicidal effect) [1]: 4 (90%-99% herbicidal effect, phytotoxicity)
- Lindernia procumbens pre (herbicidal effect) [2]: 5 (100% herbicidal effect, phytotoxicity)
- Scirpus juncoides post (herbicidal effect) [3]: 4 (90%-99% herbicidal effect, phytotoxicity)
- Lindernia procumbens post (herbicidal effect) [5]: 5 (100% herbicidal effect, phytotoxicity)

SMILES: O=C1OC(c2ccccc2C(F)(F)F)CCN1Cc1ccccc1NS(=O)(=O)C(F)(F)F (stereo not drawn) [Compound 1-294]
- Scirpus juncoides pre (herbicidal effect) [1]: 4 (90%-99% herbicidal effect, phytotoxicity)
- Lindernia procumbens pre (herbicidal effect) [2]: 5 (100% herbicidal effect, phytotoxicity)
- Scirpus juncoides post (herbicidal effect) [3]: 4 (90%-99% herbicidal effect, phytotoxicity)
- Lindernia procumbens post (herbicidal effect) [5]: 5 (100% herbicidal effect, phytotoxicity)

SMILES: O=C1OC(c2ccccc2Cl)CCN1Cc1ccccc1NS(=O)(=O)C(F)(F)F (stereo not drawn) [Compound 1-305]
- Scirpus juncoides pre (herbicidal effect) [1]: 4 (90%-99% herbicidal effect, phytotoxicity)
- Lindernia procumbens pre (herbicidal effect) [2]: 5 (100% herbicidal effect, phytotoxicity)
- Scirpus juncoides post (herbicidal effect) [3]: 4 (90%-99% herbicidal effect, phytotoxicity)
- Lindernia procumbens post (herbicidal effect) [5]: 5 (100% herbicidal effect, phytotoxicity)

SMILES: CCOC(=O)N(c1ccccc1CN1CCC(c2ccccc2Cl)OC1=O)S(=O)(=O)C(F)(F)F (stereo not drawn) [Compound 1-307]
- Scirpus juncoides pre (herbicidal effect) [1]: 4 (90%-99% herbicidal effect, phytotoxicity)
- Lindernia procumbens pre (herbicidal effect) [2]: 5 (100% herbicidal effect, phytotoxicity)
- Scirpus juncoides post (herbicidal effect) [3]: 4 (90%-99% herbicidal effect, phytotoxicity)
- Lindernia procumbens post (herbicidal effect) [5]: 5 (100% herbicidal effect, phytotoxicity)

SMILES: O=C1OC(C(F)(F)F)(C(F)(F)F)CCN1Cc1ccccc1NS(=O)(=O)C(F)(F)F [Compound 1-338]
- Scirpus juncoides pre (herbicidal effect) [1]: 4 (90%-99% herbicidal effect, phytotoxicity)
- Lindernia procumbens pre (herbicidal effect) [2]: 4 (90%-99% herbicidal effect, phytotoxicity)
- Scirpus juncoides post (herbicidal effect) [3]: 4 (90%-99% herbicidal effect, phytotoxicity)
- Lindernia procumbens post (herbicidal effect) [5]: 5 (100% herbicidal effect, phytotoxicity)

SMILES: CCOC(=O)N(c1ccccc1CN1CCC(C(F)(F)F)(C(F)(F)F)OC1=O)S(=O)(=O)C(F)(F)F [Compound 1-340]
- Scirpus juncoides pre (herbicidal effect) [1]: 4 (90%-99% herbicidal effect, phytotoxicity)
- Lindernia procumbens pre (herbicidal effect) [2]: 5 (100% herbicidal effect, phytotoxicity)
- Scirpus juncoides post (herbicidal effect) [3]: 4 (90%-99% herbicidal effect, phytotoxicity)
- Echinochloa crus-galli post (herbicidal effect) [4]: 4 (90%-99% herbicidal effect, phytotoxicity)

SMILES: COC(=O)N(c1ccccc1CN1CCC(c2c(F)cccc2F)OC1=O)S(=O)(=O)C(F)(F)F (stereo not drawn) [Compound 1-350]
- Scirpus juncoides pre (herbicidal effect) [1]: 5 (100% herbicidal effect, phytotoxicity)
- Lindernia procumbens pre (herbicidal effect) [2]: 5 (100% herbicidal effect, phytotoxicity)
- Scirpus juncoides post (herbicidal effect) [3]: 4 (90%-99% herbicidal effect, phytotoxicity)
- Lindernia procumbens post (herbicidal effect) [5]: 5 (100% herbicidal effect, phytotoxicity)

SMILES: CCOC(=O)N(c1ccccc1CN1CCC(c2c(F)cccc2F)OC1=O)S(=O)(=O)C(F)(F)F (stereo not drawn) [Compound 1-351]
- Scirpus juncoides pre (herbicidal effect) [1]: 4 (90%-99% herbicidal effect, phytotoxicity)
- Lindernia procumbens pre (herbicidal effect) [2]: 5 (100% herbicidal effect, phytotoxicity)
- Scirpus juncoides post (herbicidal effect) [3]: 4 (90%-99% herbicidal effect, phytotoxicity)
- Lindernia procumbens post (herbicidal effect) [5]: 5 (100% herbicidal effect, phytotoxicity)

SMILES: Cc1cccc(C)c1C1CCN(Cc2ccccc2NS(=O)(=O)C(F)(F)F)C(=O)O1 (stereo not drawn) [Compound 1-360]
- Scirpus juncoides pre (herbicidal effect) [1]: 5 (100% herbicidal effect, phytotoxicity)
- Lindernia procumbens pre (herbicidal effect) [2]: 5 (100% herbicidal effect, phytotoxicity)
- Scirpus juncoides post (herbicidal effect) [3]: 4 (90%-99% herbicidal effect, phytotoxicity)
- Lindernia procumbens post (herbicidal effect) [5]: 5 (100% herbicidal effect, phytotoxicity)

SMILES: CC(C)(C)COC(=O)N(c1ccccc1CN1CCC(C)(C2(C)CC2)OC1=O)S(=O)(=O)C(F)(F)F (stereo not drawn) [Compound 1-377]
- Scirpus juncoides pre (herbicidal effect) [1]: 4 (90%-99% herbicidal effect, phytotoxicity)
- Lindernia procumbens pre (herbicidal effect) [2]: 5 (100% herbicidal effect, phytotoxicity)
- Scirpus juncoides post (herbicidal effect) [3]: 4 (90%-99% herbicidal effect, phytotoxicity)
- Lindernia procumbens post (herbicidal effect) [5]: 5 (100% herbicidal effect, phytotoxicity)

SMILES: CC1(c2ccccc2C(F)(F)F)CCN(Cc2ccccc2NS(=O)(=O)C(F)(F)F)C(=O)O1 (stereo not drawn) [Compound 1-393]
- Scirpus juncoides pre (herbicidal effect) [1]: 5 (100% herbicidal effect, phytotoxicity)
- Lindernia procumbens pre (herbicidal effect) [2]: 5 (100% herbicidal effect, phytotoxicity)
- Scirpus juncoides post (herbicidal effect) [3]: 4 (90%-99% herbicidal effect, phytotoxicity)
- Lindernia procumbens post (herbicidal effect) [5]: 5 (100% herbicidal effect, phytotoxicity)

SMILES: Cc1ccccc1C1(C)CCN(Cc2ccccc2NS(=O)(=O)C(F)(F)F)C(=O)O1 (stereo not drawn) [Compound 1-404]
- Scirpus juncoides pre (herbicidal effect) [1]: 4 (90%-99% herbicidal effect, phytotoxicity)
- Lindernia procumbens pre (herbicidal effect) [2]: 5 (100% herbicidal effect, phytotoxicity)
- Scirpus juncoides post (herbicidal effect) [3]: 4 (90%-99% herbicidal effect, phytotoxicity)
- Lindernia procumbens post (herbicidal effect) [5]: 5 (100% herbicidal effect, phytotoxicity)

SMILES: CCC1(C(F)(F)F)CCN(Cc2ccccc2N(C(=O)OCC(Cl)(Cl)Cl)S(=O)(=O)C(F)(F)F)C(=O)O1 (stereo not drawn) [Compound 1-416]
- Scirpus juncoides pre (herbicidal effect) [1]: 5 (100% herbicidal effect, phytotoxicity)
- Lindernia procumbens pre (herbicidal effect) [2]: 5 (100% herbicidal effect, phytotoxicity)
- Scirpus juncoides post (herbicidal effect) [3]: 4 (90%-99% herbicidal effect, phytotoxicity)
- Echinochloa crus-galli post (herbicidal effect) [4]: 5 (100% herbicidal effect, phytotoxicity)

SMILES: CCOC(=O)N(c1ccccc1CN1CCC(CC)(CC(C)C)OC1=O)S(=O)(=O)C(F)(F)F (stereo not drawn) [Compound 1-419]
- Scirpus juncoides pre (herbicidal effect) [1]: 5 (100% herbicidal effect, phytotoxicity)
- Lindernia procumbens pre (herbicidal effect) [2]: 5 (100% herbicidal effect, phytotoxicity)
- Scirpus juncoides post (herbicidal effect) [3]: 4 (90%-99% herbicidal effect, phytotoxicity)
- Lindernia procumbens post (herbicidal effect) [5]: 5 (100% herbicidal effect, phytotoxicity)

SMILES: CCC1(CC(C)C)CCN(Cc2ccccc2N(C(=O)OCC(C)C)S(=O)(=O)C(F)(F)F)C(=O)O1 (stereo not drawn) [Compound 1-422]
- Scirpus juncoides pre (herbicidal effect) [1]: 5 (100% herbicidal effect, phytotoxicity)
- Lindernia procumbens pre (herbicidal effect) [2]: 5 (100% herbicidal effect, phytotoxicity)
- Scirpus juncoides post (herbicidal effect) [3]: 4 (90%-99% herbicidal effect, phytotoxicity)
- Lindernia procumbens post (herbicidal effect) [5]: 5 (100% herbicidal effect, phytotoxicity)
